Earlier results, collected in patent US20220095646A1, “METHODS FOR THE PRODUCTION AND USE OF MYCELIATED AMINO ACID-SUPPLEMENTED FOOD COMPOSITIONS” (MycoTechnology, Inc., priority 2019, published 2022).

SMILES	Taste thresholds (Kato et al. 1989), sour	Taste thresholds (Kato et al. 1989), umami	Taste thresholds (Kato et al. 1989), bitter	also measured
N[C@@H](CC(=O)O)C(=O)O [Aspartic acid]	0.03 mg/mL	1 mg/mL	–	–
N[C@@H](CCC(=O)O)C(=O)O [Glutamic acid]	0.05 mg/mL	0.3 mg/mL	–	–
CC[C@H](C)[C@H](N)C(=O)O [Isoleucine]	–	–	0.9 (bitter) mg/mL	–
NCCCC[C@H](N)C(=O)O [Lysine]	–	–	–	Taste thresholds (Kato et al. 1989), sweet and bitter (sweet and bitter): 0.5 (sweet and bitter) mg/mL
C[C@@H](O)[C@H](N)C(=O)O [Threonine]	–	–	–	Taste thresholds (Kato et al. 1989), sweet (sweet): 2.6 (sweet) mg/mL
CC(C)[C@H](N)C(=O)O [Valine]	–	–	0.4 (bitter) mg/mL	–
